# Earlier results in patent US20160311826A1, “SGC STIMULATORS” (IRONWOOD PHARMACEUTICALS, INC., priority 2013, published 2016).
# Key:
# [1] = test system: obese mice; conditions: cited from earlier work
# [2] = test system: NO-deficient rats; conditions: cited from earlier work
SMILES,overactive bladder [1],bladder dysfunction [2]
O=C(O)CCCCN(CCc1cc(F)ccc1OCc1ccc(-c2ccc(C(F)(F)F)cc2)cc1)Cc1ccc(C(=O)O)cc1 [BAY 60-2770],ameliorates overactive bladder in obese mice,
Nc1nc(-c2nn(Cc3ccccc3F)c3ncccc23)ncc1C1CC1 [BAY-2272],,protective effects
